Experimental data reported in patent publication US20230126447A1, “OCULAR DRUG DEPOT FOR COMPLEMENT-MEDIATED DISORDERS” (priority 2020, published 2023).
Where two headings read alike, the source gives them in different places.

Experiments:
[1] = system: AP activity; test: Wieslab assay (AP activity in vitro); format: biochemical
[2] = Ocular tissue and plasma pharmacokinetics, 50 mg/kg BID oral, New Zealand White rabbits (Example 4); format: in vivo; settings: one-hour post-dose on Day 15
Procedure: Study design, including group designation and dose levels, are outlined in Table 15. […] Two Dutch Belted rabbits received vehicle only oral gavage doses for tolerability assessment. […] The dose volume was 5 mL/kg/dose for all groups. Safety was assessed with toxicological and ophthalmic examinations, including slit lamp biomicroscopy, indirect ophthalmoscopy, rebound tonometry, and ultrasonic corneal pachymetry. […] Plasma, vitreous humor (VH), retina, choroid-retina pigmented epithelium (Choroid-RPE), optic nerve (ON), and iris-ciliary body (I-CB) were analyzed by LC-MS/MS to quantify test article concentrations. The lower limit of quantitation (LLOQ) in plasma and vitreous humor was 1.0 ng/mL.

[3] = Ocular tissue distribution and pharmacokinetics, 15 mg/kg BID oral, nonpigmented New Zealand White rabbits (Example 7); format: in vivo
Procedure: For Groups 2 through 4, blood (approximately 2 mL) was collected via a jugular vein using a syringe and needle and was transferred into tubes containing K2EDTA at approximately 12 hours after the a.m. dose on Day 15 from the two animals designated for sacrifice at approximately 240 hours after the a.m. dose on Day 15. For Groups 2 through 4, two animals/group/time point were sacrificed via an overdose of sodium pentobarbital prior to dosing on Day 15 and at approximately 1, 6, 24, 96, 168, and 240 hours after the a.m. dose on Day 15. Blood (approximately 2 mL) was collected from all animals at sacrifice into tubes containing K2EDTA via exsanguination (cardiac puncture). Blood was maintained on wet ice, in chilled cryoracks, or at approximately 5° C. prior to centrifugation to obtain plasma. Centrifugation began within 1 hour of collection (Deviation). Plasma was placed into 96-well tubes with barcode labels. Plasma was maintained on dry ice prior to storage at approximately −70° C. At the time of sacrifice, both eyes were enucleated, and the following tissues were collected. Each eye was flash-frozen in liquid nitrogen for 15 to 20 seconds. The enucleated eye was placed on dry ice or stored at approximately −70° C. for at least 2 hours. Within approximately 3 days, the frozen matrices were collected as right and left eyes for each matrix into the specific tube type listed. At the time of frozen collection, the ocular tissues were rinsed with saline and blotted dry (as appropriate), weighed, and placed on dry ice. All ocular tissues were collected as single samples.

[4] = Choroid-RPE (OU), male NZW rabbits, Group 4, Day 15, 15 mg/kg/dose BID oral (30 mg/kg/day)
[5] = ICB (OU), male NZW rabbits, Group 4, Day 15, 15 mg/kg/dose BID oral (30 mg/kg/day)
[6] = NZW rabbits, Day 15, 15 mg/kg BID, 96 hr
[7] = NZW rabbits, Day 15, 15 mg/kg BID, 168 hr
[8] = NZW rabbits, Day 15, 15 mg/kg BID, 240 hr
[9] = New Zealand White, rabbit, choroid-RPE, oral, NZW rabbits, Day 15, 15 mg/kg BID, read-out: Mean Choroid-RPE Concentration
[10] = New Zealand White, rabbit, iris-ciliary body, oral, NZW rabbits, Day 15, 15 mg/kg BID, read-out: Mean Iris-Ciliary Concentration
[11] = New Zealand White, rabbit, plasma, oral, NZW rabbits, Day 15, 15 mg/kg BID, read-out: Mean Plasma Concentration
[12] = New Zealand White, rabbit, retina, oral, NZW rabbits, Day 15, 15 mg/kg BID, read-out: Mean Retina Concentration
[13] = New Zealand White, rabbit, plasma, male NZW rabbits, Group 4, Day 15, 15 mg/kg/dose BID oral (30 mg/kg/day)
[14] = Retina (OU), male NZW rabbits, Group 4, Day 15, 15 mg/kg/dose BID oral (30 mg/kg/day)
[15] = plasma, male NZW rabbits, Group 4, Day 15, 15 mg/kg/dose BID oral (30 mg/kg/day)

## CC(=O)c1nn(CC(=O)N2C[C@H](F)C[C@H]2C(=O)Nc2cccc(Br)n2)c2ccc(-c3cnc(C)nc3)cc12 [Compound 1, (2S,4R)-1-(2-(3-Acetyl-5-(2-methylpyrimidin-5-yl)-1H-indazol-1-yl)acetyl)-N-(6-bromopyridin-2-yl)-4-fluoropyrrolidine-2-carboxamide]
[1]
  IC50: 26 nM
[2]
  Choroid-RPE tissue exposure in NZW versus DB rabbit: approximately five-fold lower
[3]; [4]
  AUC0-12: 1440 ng·h/g
  AUC0-240: 2370 ng·h/g
  AUC(0-24): 1830 ng·h/g
  AUC(0-t): 1830 ng·h/g
  Ctrough: 50.7 ng/g
  DN AUC0-12: 95.9 (h*ng/g)/(mg/kg/dose)
  DN AUC0-24: 122 (h*ng/g)/(mg/kg/day)
  DN AUC0-240: 158 (h*ng/g)/(mg/kg/day)
  DN Cmax: 19.8 (ng/g)/(mg/kg/day
[3]; [5]
  AUC0-12: 356 ng·h/g
  AUC(0-24): 453 ng·h/g
  AUC(0-t): 453 ng·h/g
  Ctrough: 14.6 ng/g
  DN AUC0-12: 23.7 (h*ng/g)/(mg/kg/dose)
  DN AUC0-24: 30.2 (h*ng/g)/(mg/kg/day)
  DN Cmax: 4.33 (ng/g)/(mg/kg/day)
[3]; [6]
  Mean Choroid-RPE concentration: BLQ
  Mean plasma concentration: BLQ
  Mean retina concentration: BLQ
[3]; [7]
  Mean Choroid-RPE concentration: BLQ
  Mean plasma concentration: BLQ
  Mean retina concentration: BLQ
[3]; [8]
  Mean Choroid-RPE concentration: BLQ
  Mean plasma concentration: BLQ
  Mean retina concentration: BLQ
[3]; [9]
  concentration at 0 h: 40.3 ng/g
  concentration at 1 h: 296 ng/g
  concentration at 6 h: 68.6 ng/g
  concentration at 24 h: 14.9 ng/g
[3]; New Zealand White, rabbit, choroid-retinal pigment epithelium (choroid-RPE), Choroid-RPE (OU), male NZW rabbits, Group 4, Day 15, 15 mg/kg/dose BID oral (30 mg/kg/day)
  Tmax: 1 h
[3]; New Zealand White, rabbit, iris-ciliary body (ICB), ICB (OU), male NZW rabbits, Group 4, Day 15, 15 mg/kg/dose BID oral (30 mg/kg/day)
  Tmax: 1 h
[3]; New Zealand White, rabbit, iris-ciliary body (ICB), ICB (OU), male NZW rabbits, Group 4, Day 15, 15 mg/kg/dose BID oral (30 mg/kg/day), read-out: Cmax
  Cmax: 64.9 ng/g
[3]; [10]
  concentration at 1 h: 64.9 ng/g
  concentration at 6 h: 21.2 ng/g
  concentration at 24 h: 1.6 ng/g
[3]; [11]
  concentration at 0 h: 53.8 ng/mL
  concentration at 1 h: 558 ng/mL
  concentration at 6 h: 179 ng/mL
  concentration at 24 h: 11.7 ng/mL
[3]; New Zealand White, rabbit, plasma, oral, NZW rabbits, Day 15, 15 mg/kg BID, 12 hr
  concentration at 12 h: 82.2 ng/mL
[3]; [12]
  concentration at 0 h: 36.3 ng/g
  concentration at 1 h: 248 ng/g
  concentration at 6 h: 86.1 ng/g
  concentration at 24 h: 9.18 ng/g
[3]; New Zealand White, rabbit, Retina (OU), male NZW rabbits, Group 4, Day 15, 15 mg/kg/dose BID oral (30 mg/kg/day)
  Tmax: 1 h
[3]; [13]
  Tmax: 1 h
  half-life: 4.53 h
[3]; [14]
  AUC0-12: 1420 ng·h/g
  AUC0-240: 2160 ng·h/g
  AUC(0-24): 1830 ng·h/g
  AUC(0-t): 1830 ng·h/g
  Ctrough: 60.4 ng/g
  DN AUC0-12: 94.4 (h*ng/g)/(mg/kg/dose)
  DN AUC0-24: 122 (h*ng/g)/(mg/kg/day)
  DN AUC0-240: 144 (h*ng/g)/(mg/kg/day)
  DN Cmax: 16.5 (ng/g)/(mg/kg/day)
[3]; male, New Zealand White, rabbit, plasma, po, 15 mg/kg, plasma, male NZW rabbits, Group 4, Day 15, 15 mg/kg/dose BID oral (30 mg/kg/day), read-out: AUC0-12
  AUC(0-t): 2930 ng·h/mL
[3]; male, New Zealand White, rabbit, plasma, po, 15 mg/kg, plasma, male NZW rabbits, Group 4, Day 15, 15 mg/kg/dose BID oral (30 mg/kg/day), read-out: AUC0-240
  AUC(0-t): 3910 ng·h/mL
[3]; male, New Zealand White, rabbit, plasma, po, 15 mg/kg, plasma, male NZW rabbits, Group 4, Day 15, 15 mg/kg/dose BID oral (30 mg/kg/day), read-out: AUC0-t
  AUC(0-t): 3490 ng·h/mL
[3]; [15]
  Cmax: 558 ng/mL
  Ctrough: 82.2 ng/mL
  DN AUC0-12: 195 (h*ng/mL)/(mg/kg/dose)
  DN AUC0-24: 233 (h*ng/mL)/(mg/kg/day)
  DN AUC0-240: 261 (h*ng/mL)/(mg/kg/day)
  DN Cmax: 37.2 (ng/mL)/(mg/kg/day)
